Assay results as given in US5824072A, “Biocompatible ocular implants” (Oculex Pharmaceuticals, Inc., priority 1996, dated 1998).
Read-outs that look alike come from different tables or passages of the source.

Tests used:
[1] = In vitro drug release from polyurethane sheets; assay type: physicochemical
Method: After drying of the mixtures, implants were then cut from the resulting sheets of drug-filled polymer affixed to the release liner. The drug-release behavior of the polymeric, drug-containing sheets was then tested. The release liner was removed from an implant sheet and a weighed sample of the sheet added to a solution containing four parts by weight ethanol and six parts by weight of deionized water at 37° C. with slow stirring. The appearance of the dissolved drug was followed as a function of time by spectrophotometry.

[2] = rabbit, in vivo
Method: One eye of each of six rabbits was implanted at the pars plana with methotrexate (MTX)-lactic acid microspheres and in one eye of another six rabbits with hydrocortisone, acetate-lactic acid microspheres.
A 40% (by weight) mixture of MIX and hydrocortisone with polylactate polymer were solubilized in chloroform and ethanol (Table 1). Coacervation into microcapsules tool place in 500 ml of a 5% polyvinyl alcohol aqueous solution with moderate to high speed stirring. Evaporation was performed under light vacuum with constant stirring for an additional 8 hrs. The resulting microspheres measuring 0.1 to 0.5 mm were selected and dried in vacuum for an additional 24 to 48 hours. Approximately 25 microcapsules were implanted at the pars plana.

[3] = rabbit, in vivo; remark: listed apart in the source
Method: A 40% (by weight) of MTX and hydrocortisone and polylactate polymer were mixed under moltened conditions (Table 2). The resulting mixture was plated into a thin layer of approximately 0.4 to 0.5 mm in thickness and cooled overnight at room temperature. A plaque measuring approximately 3×4 mm was fashioned from the layer and was surgically placed into the pars plana.
Plaques of MTX and hydrocortsone were given to one eye of each of 3 animals at the pars plana and over the vitreous base following scleral resection.

C[C@@H]1C[C@H]2[C@@H]3CCC4=CC(=O)C=C[C@]4(C)[C@@]3(F)[C@@H](O)C[C@]2(C)[C@@]1(O)C(=O)CO [dexamethasone]
more than 50%: drug released from sheets ([1]; Example 1 polyurethane/dexamethasone sheet, ethanol/deionized water 4:6 by weight, 37° C., within 4 hrs)

CN(Cc1cnc2nc(N)nc(N)c2n1)c1ccc(C(=O)N[C@@H](CCC(=O)O)C(=O)O)cc1 [MTX, methotrexate]
0 ng/mL: drug concentration, LE PC ([2]; 10080 min) | drug concentration, LE PC ([2]; 20160 min) | drug concentration, LE PC ([2]; 30240 min) | drug concentration, LE PC ([2]; 40320 min) | drug concentration, LE PC ([2]; 50400 min) | drug concentration, LE PC ([2]; 60480 min) | drug concentration, LE PC ([3]; 43200 min) | drug concentration, LE PC ([3]; 86400 min) | drug concentration, LE PC ([3]; 129600 min)

Nc1nc(O)c2ncn(COC(CO)CO)c2n1 [gancyclovir]
more than 60%: drug released from sheets ([1]; Example 2 polyurethane/gancyclovir sheet, in vitro as described above, after the first 2 hrs)

C[C@]12CCC(=O)C=C1CC[C@@H]1[C@@H]2[C@@H](O)C[C@@]2(C)[C@H]1CC[C@]2(O)C(=O)CO [Hydrocortisone, hydrocortisone]
0 ng/mL: drug concentration, RE PC ([2]; 10080 min) | drug concentration, RE PC ([2]; 20160 min) | drug concentration, RE PC ([2]; 30240 min) | drug concentration, RE PC ([2]; 40320 min) | drug concentration, RE PC ([2]; 50400 min) | drug concentration, RE PC ([2]; 60480 min) | drug concentration, RE PC ([3]; 43200 min) | drug concentration, RE PC ([3]; 86400 min) | drug concentration, RE PC ([3]; 129600 min)
